Molecular target: Oxoeicosanoid receptor 1 (Homo sapiens, UniProt Q8TDS5)
Experiment: Antagonist activity at OXE receptor in human neutrophils assessed as inhibition of calcium mobilization by fluorescence assay
Format: functional

Sequence of Oxoeicosanoid receptor 1 (Q8TDS5 whole entry): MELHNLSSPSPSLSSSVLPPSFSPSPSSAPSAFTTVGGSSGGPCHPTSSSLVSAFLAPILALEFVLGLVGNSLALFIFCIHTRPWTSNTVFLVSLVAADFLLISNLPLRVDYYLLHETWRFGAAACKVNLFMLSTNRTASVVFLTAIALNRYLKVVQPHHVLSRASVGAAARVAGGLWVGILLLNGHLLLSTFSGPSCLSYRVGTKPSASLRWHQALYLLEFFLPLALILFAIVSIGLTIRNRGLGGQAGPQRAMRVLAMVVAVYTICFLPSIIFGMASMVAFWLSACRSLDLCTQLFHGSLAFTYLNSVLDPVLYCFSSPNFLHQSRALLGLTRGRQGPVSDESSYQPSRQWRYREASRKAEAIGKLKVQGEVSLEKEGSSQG

| IC50 [nM] | SMILES |
| --- | --- |
| 2.7 | CCCCCCc1c(C(=O)C[C@@H](C)CC(=O)O)c2cc(Cl)ccc2n1C |
| 6 | CCCCCCc1c(C(=O)C[C@H](C)CC(=O)O)c2cc(Cl)ccc2n1C |
